Assay results taken from ChEMBL document CHEMBL1201862, “PubChem BioAssay data set” (2004).
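How tested: cells in 96-well plates exposed to compound for 48 hours at five concentrations. Here, GI50 denotes the concentration required for 50% inhibition of growth.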 The source made the active and inactive calls. No stated cut-off is given here; in the data, active = GI50 up to about 1.1 µM and inactive = higher.

How the values were obtained:
Test in all cases: growth of human tumour cells (NCI), 48 h
Malme-3M = system: Malme-3M
HOP-18 = system: HOP-18
A549 = system: A549
OVCAR-5 = system: OVCAR-5
TK-10 = system: TK-10
SK-MEL-28 = system: SK-MEL-28
ACHN = system: ACHN
RPMI-8226 = system: RPMI-8226
HCC 2998 = system: HCC 2998
KM12 = system: KM12
EKVX = system: EKVX
OVCAR-3 = system: OVCAR-3
SK-MEL-2 = system: SK-MEL-2
786-0 = system: 786-0
NCI-H522 = system: NCI-H522
LXFL 529 = system: LXFL 529

Row | SMILES | GI50 (Malme-3M) | GI50 (HOP-18) | GI50 (A549) | GI50 (OVCAR-5) | GI50 (TK-10) | GI50 (SK-MEL-28) | GI50 (ACHN) | GI50 (RPMI-8226) | GI50 (HCC 2998) | GI50 (KM12) | GI50 (EKVX) | GI50 (OVCAR-3) | GI50 (SK-MEL-2) | GI50 (786-0) | GI50 (NCI-H522) | GI50 (LXFL 529)
1 | COc1ccc(C(c2ccccc2)(c2ccc(OC)cc2)N2C(=O)NC3C(CCCCC(=O)NCCCCCCOP(OCCC#N)N(C(C)C)C(C)C)SCC32)cc1 (centres undefined) | 17.8 µM (inactive) | 11.8 µM (inactive) | 20.3 µM (inactive) | > 10 µM (inactive) | 18 µM (inactive) | 15 µM (inactive) | 16.3 µM (inactive) | 8.34 µM (inactive) | 16.6 µM (inactive) | 16.2 µM (inactive) | 21.5 µM (inactive) | 14.8 µM (inactive) | 11.6 µM (inactive) | 18.1 µM (inactive) | 12.7 µM (inactive) | 11.9 µM (inactive)
2 | COc1ccc(Sc2ccccc2[N+](=O)[O-])cc1 | 13 µM (inactive) | > 100 µM (inactive) | 15.2 µM (inactive) | > 100 µM (inactive) | 34.8 µM (inactive) | 5.28 µM (inactive) |  | 25.5 µM (inactive) | 8.36 µM (inactive) | 6.44 µM (inactive) | 37 µM (inactive) | 12.4 µM (inactive) | 32.1 µM (inactive) |  |  | 27.5 µM (inactive)
3 | COc1cc(OC)c2c(O)cc(CC(C)O)cc2c1 (centres undefined) | > 100 µM (inactive) | > 100 µM (inactive) | > 100 µM (inactive) | > 100 µM (inactive) | > 100 µM (inactive) | > 100 µM (inactive) | > 100 µM (inactive) | > 100 µM (inactive) | > 100 µM (inactive) | > 100 µM (inactive) | > 100 µM (inactive) | > 100 µM (inactive) | > 100 µM (inactive) | > 100 µM (inactive) | > 100 µM (inactive) | > 100 µM (inactive)
4 | COC(=O)C(=O)C(C(=O)C(=O)Nc1ccc([N+](=O)[O-])cc1[N+](=O)[O-])c1nc2ccc([N+](=O)[O-])cc2nc1O (centres undefined) | > 100 µM (inactive) | 22.1 µM (inactive) | > 100 µM (inactive) | > 100 µM (inactive) | > 100 µM (inactive) |  | > 100 µM (inactive) | > 100 µM (inactive) | > 100 µM (inactive) | > 100 µM (inactive) | 38.2 µM (inactive) | > 100 µM (inactive) |  | > 100 µM (inactive) | 50.1 µM (inactive) | > 100 µM (inactive)
5 | COc1cccc2c1C(=O)c1c(O)c3c(c(O)c1C2=O)C[C@@](O)(C(=O)CO)CC3OC1CC(NCCCC(OC(C)=O)OC(C)=O)C(O)C(C)O1 (some centres undefined) | 0.00209 µM (active) | 0.00413 µM (active) | 0.00333 µM (active) | 0.00267 µM (active) | 0.00641 µM (active) | 0.00259 µM (active) | 0.00243 µM (active) | 0.00322 µM (active) | 0.00228 µM (active) | 0.00279 µM (active) | 0.00277 µM (active) | 0.0045 µM (active) | 0.00192 µM (active) | 0.00219 µM (active) | 0.00129 µM (active) | 0.00262 µM (active)
6 | NC(=O)c1ncn(Cc2ccccc2)c1CNC(N)=S |  | > 100 µM (inactive) | > 100 µM (inactive) | > 100 µM (inactive) | > 100 µM (inactive) | > 100 µM (inactive) | > 100 µM (inactive) | > 100 µM (inactive) | > 100 µM (inactive) | > 100 µM (inactive) | > 100 µM (inactive) | > 100 µM (inactive) |  | > 100 µM (inactive) |  | > 100 µM (inactive)
7 | CC1=C2N3C[C@@H](n4c(=O)n(C)c(=O)n43)C23CCC1n1c(=O)n(C)c(=O)n13 | > 100 µM (inactive) | > 100 µM (inactive) |  | > 100 µM (inactive) | > 100 µM (inactive) | > 100 µM (inactive) | > 100 µM (inactive) | 42.7 µM (inactive) | 7.85 µM (inactive) | > 100 µM (inactive) | > 100 µM (inactive) |  |  | 35.6 µM (inactive) |  | 85.1 µM (inactive)
8 | N=C(NC(=N)Nc1ccc(S(=O)(=O)Nc2cnc3ccccc3n2)cc1)Nc1ccc(Br)cc1 | > 100 µM (inactive) | > 100 µM (inactive) | > 100 µM (inactive) | > 100 µM (inactive) | > 100 µM (inactive) | > 100 µM (inactive) | > 100 µM (inactive) | > 100 µM (inactive) | > 100 µM (inactive) | > 100 µM (inactive) | > 100 µM (inactive) | > 100 µM (inactive) | > 100 µM (inactive) | > 100 µM (inactive) | > 100 µM (inactive) | > 100 µM (inactive)
9 | NC1=NC(c2ccccc2)CC(c2cc(Cl)cc(Br)c2O)=N1 (centres undefined) | 4.55 µM (inactive) | 17.7 µM (inactive) | 14.6 µM (inactive) | 19.6 µM (inactive) | 18.8 µM (inactive) | 13.1 µM (inactive) | 16.9 µM (inactive) | 7.31 µM (inactive) | 13.6 µM (inactive) | 11 µM (inactive) | 10.1 µM (inactive) | 15.8 µM (inactive) | 4.59 µM (inactive) | 16.9 µM (inactive) | 3.79 µM (inactive) | 16.7 µM (inactive)
10 | NC(CCCNc1ccc(O)cc1)C(=O)O (centres undefined) | > 56.1 µM (inactive) | > 76.4 µM (inactive) | > 94.2 µM (inactive) | > 100 µM (inactive) | > 63.2 µM (inactive) | 42.6 µM (inactive) | 26 µM (inactive) | 24.4 µM (inactive) | 40.6 µM (inactive) | 49.2 µM (inactive) | 38.8 µM (inactive) | 18.1 µM (inactive) | 31 µM (inactive) | 17.2 µM (inactive) | 61.4 µM (inactive) | 18.3 µM (inactive)
11 | CN1Cc2ccccc2C2(COc3ccccc3C2=O)C1 (centres undefined) | > 100 µM (inactive) | > 100 µM (inactive) | > 100 µM (inactive) | > 100 µM (inactive) | > 100 µM (inactive) |  | > 100 µM (inactive) | 68.7 µM (inactive) | > 100 µM (inactive) |  | > 100 µM (inactive) | 77.8 µM (inactive) | > 100 µM (inactive) |  | 98.2 µM (inactive) | 76.6 µM (inactive)
12 | Fc1cccc(Cl)c1C1SCc2nc3ccccc3n21 (centres undefined) | 14.8 µM (inactive) | 29.7 µM (inactive) | 37.2 µM (inactive) | 31.8 µM (inactive) | 57 µM (inactive) |  | 39.2 µM (inactive) | 17.1 µM (inactive) | 31.7 µM (inactive) | 24.8 µM (inactive) | 26.4 µM (inactive) | 21.9 µM (inactive) | 21.1 µM (inactive) | 45.7 µM (inactive) | 17.3 µM (inactive) | 35.9 µM (inactive)
13 | CC1=C(Cl)C=CP(=O)(Oc2ccccc2)C1 (centres undefined) | 44.5 µM (inactive) | 23.1 µM (inactive) | 38.8 µM (inactive) | > 100 µM (inactive) |  | 26.4 µM (inactive) | > 100 µM (inactive) |  | > 100 µM (inactive) | > 100 µM (inactive) | > 100 µM (inactive) | > 100 µM (inactive) | 41.3 µM (inactive) |  | 15.6 µM (inactive) | 15.3 µM (inactive)
